These results are taken from patent publication US9593110B2, “Neprilysin inhibitors” (Theravence Biopharma R&D IP, LLC, priority 2014, dated 2017).

The target of this assay is human NEP (Homo sapiens (Human), UniProt P08473). The assay is described as follows: In vitro enzyme inhibition assay at human NEP. The following applies: recombinant human NEP, fluorogenic peptide substrate, 37° C.; for Ki: pKi.

By Ki is commonly meant a dissociation constant, usually derived from enzyme kinetics or from competition with a known ligand.

Chain of human NEP (P08473 52-750): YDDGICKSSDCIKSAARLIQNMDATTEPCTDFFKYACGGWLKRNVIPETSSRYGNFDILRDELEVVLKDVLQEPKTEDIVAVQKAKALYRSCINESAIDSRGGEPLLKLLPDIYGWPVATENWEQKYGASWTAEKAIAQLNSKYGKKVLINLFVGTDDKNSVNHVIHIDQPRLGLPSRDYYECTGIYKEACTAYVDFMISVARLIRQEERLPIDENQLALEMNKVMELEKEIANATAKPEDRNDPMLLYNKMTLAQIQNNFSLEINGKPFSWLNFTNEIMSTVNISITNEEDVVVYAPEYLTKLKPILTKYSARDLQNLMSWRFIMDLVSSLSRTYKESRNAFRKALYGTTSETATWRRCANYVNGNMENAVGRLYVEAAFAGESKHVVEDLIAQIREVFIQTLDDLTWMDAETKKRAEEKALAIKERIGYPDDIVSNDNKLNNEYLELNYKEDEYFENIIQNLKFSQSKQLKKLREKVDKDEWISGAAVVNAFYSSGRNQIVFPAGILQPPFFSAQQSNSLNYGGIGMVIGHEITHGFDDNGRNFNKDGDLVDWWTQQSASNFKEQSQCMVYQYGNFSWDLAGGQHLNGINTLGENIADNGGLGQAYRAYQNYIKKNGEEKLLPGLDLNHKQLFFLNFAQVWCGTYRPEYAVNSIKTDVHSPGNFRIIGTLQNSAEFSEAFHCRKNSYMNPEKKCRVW

In the case of `CCCc1cc(C(=O)N[C@H](Cc2ccc(-c3cc(Cl)ccc3F)cc2)C[C@@H](N)C(=O)O)no1` [Example 16-2, (2R,4R)-2-Amino-5-(5′-chloro-2′-fluorobiphenyl-4-yl)-4-[(5-propylisoxazole-3-carbonyl)-amino]pentanoic acid], the Ki was 1.26 to 3.16 nM.

Consider `Cc1cnc(C(=O)N[C@H](Cc2ccc(-c3cc(Cl)ccc3F)cc2)C[C@@H](N)C(=O)O)o1` [Example 16-3, (2R,4R)-2-Amino-5-(5′-chloro-2′-fluorobiphenyl-4-yl)-4-[(5-methyloxazole-2-carbonyl)-amino]pentanoic acid], for which the Ki was 1.26 to 3.16 nM.

For the compound `N[C@H](C[C@@H](Cc1ccc(-c2cc(Cl)ccc2F)cc1)NC(=O)c1coc(C2CC2)n1)C(=O)O` [Example 16-4, (2R,4R)-2-Amino-5-(5′-chloro-2′-fluorobiphenyl-4-yl)-4-[(2-cyclopropyloxazole-4-carbonyl)amino]pentanoic acid], the Ki fell in the range of 1.26 to 3.16 nM.

Turning to `CCOc1nc(C(=O)N[C@H](Cc2ccc(-c3cc(Cl)ccc3F)cc2)C[C@@H](N)C(=O)O)co1` [Example 16-5, (2R,4R)-2-Amino-5-(5′-chloro-2′-fluorobiphenyl-4-yl)-4-[(2-ethoxyoxazole-4-carbonyl)-amino]pentanoic acid], the Ki was 3.16 to 10 nM.

For `CCCc1nc(C(=O)N[C@H](Cc2ccc(-c3cc(Cl)ccc3F)cc2)C[C@@H](N)C(=O)O)co1` [Example 16-6, (2R,4R)-2-Amino-5-(5′-chloro-2′-fluorobiphenyl-4-yl)-4-[(2-propyloxazole-4-carbonyl)-amino]pentanoic acid], the Ki is 3.16 to 10 nM.

As for `N[C@H](C[C@@H](Cc1ccc(-c2cc(Cl)ccc2F)cc1)NC(=O)c1ccc(Cl)cn1)C(=O)O` [Example 16-7, (2R,4R)-2-Amino-5-(5′-chloro-2′-fluorobiphenyl-4-yl)-4-[(5-chloropyridine-2-carbonyl)-amino]pentanoic acid], the Ki was in the range of 3.16 to 10 nM.

Regarding `N[C@H](C[C@@H](Cc1ccc(-c2cc(Cl)ccc2F)cc1)NC(=O)c1ccns1)C(=O)O` [Example 16-8, (2R,4R)-2-Amino-5-(5′-chloro-2′-fluorobiphenyl-4-yl)-4-[(isothiazole-5-carbonyl)amino]-pentanoic acid], the inhibition constant (Ki) lay within 3.16 to 10 nM.

Regarding `CC(=O)c1cc(C(=O)N[C@H](Cc2ccc(-c3cc(Cl)ccc3F)cc2)C[C@@H](N)C(=O)O)[nH]n1` [Example 16-9, (2R,4R)-4-[(5-Acetyl-2H-pyrazole-3-carbonyl)amino]-2-amino-5-(5′-chloro-2′-fluoro-biphenyl-4-yl)pentanoic acid], the pKi result is reported as “≧9.0”.

On to `CCOC(=O)[C@H](N)C[C@@H](Cc1ccc(-c2cc(Cl)ccc2F)cc1)NC(=O)c1cc(O)no1` [Example 16-11, (2R,4R)-2-Amino-5-(5′-chloro-2′-fluorobiphenyl-4-yl)-4-[(3-hydroxyisoxazole-5-carbonyl)amino]pentanoic acid ethyl ester], for which the Ki was 3.16 to 10 nM.

For `N[C@@H](C[C@@H](Cc1ccc(-c2cc(Cl)ccc2F)cc1)NC(=O)c1noc(=O)[nH]1)C(=O)O` [Example 16-15, (2S,4R)-2-Amino-5-(5′-chloro-2′-fluorobiphenyl-4-yl)-4-[(5-oxo-4,5-dihydro-[1,2,4]oxadiazole-3-carbonyl)amino]pentanoic acid], the Ki was in the range of 3.16 to 10 nM.

Regarding `N[C@H](C[C@@H](Cc1ccc(-c2cc(Cl)ccc2F)cc1)NC(=O)c1noc(=O)[nH]1)C(=O)O` [Example 16-16, (2R,4R)-2-Amino-5-(5′-chloro-2′-fluorobiphenyl-4-yl)-4-[(5-oxo-4,5-dihydro-[1,2,4]oxadiazole-3-carbonyl)amino]pentanoic acid], the pKi entry is “≧9.0”.

As to `CN(C)C(=O)c1cc(C(=O)N[C@H](Cc2ccc(-c3cc(Cl)ccc3F)cc2)C[C@@H](N)C(=O)O)[nH]n1` [Example 16-18, (2R,4R)-2-Amino-5-(5′-chloro-2′-fluorobiphenyl-4-yl)-4-[(5-dimethylcarbamoyl-2H-pyrazole-3-carbonyl)amino]pentanoic acid], the pKi entry is “≧9.0”.

With `Cc1n[nH]c(C(=O)N[C@H](Cc2ccc(-c3cc(Cl)ccc3F)cc2)C[C@@H](N)C(=O)O)c1F` [Example 16-20, (2R,4R)-2-Amino-5-(5′-chloro-2′-fluorobiphenyl-4-yl)-4-[(4-fluoro-5-methyl-2H-pyrazole-3-carbonyl)amino]pentanoic acid], the Ki lay in the range of 1.26 to 3.16 nM.

For `CNC(=O)c1cc(C(=O)N[C@H](Cc2ccc(-c3cc(Cl)ccc3F)cc2)C[C@@H](N)C(=O)O)[nH]n1` [Example 16-21, (2R,4R)-2-Amino-5-(5′-chloro-2′-fluorobiphenyl-4-yl)-4-[(5-methylcarbamoyl-2H-pyrazole-3-carbonyl)amino]pentanoic acid], the pKi entry was “≧9.0”.

As for `N[C@H](C[C@@H](Cc1ccc(-c2cc(Cl)ccc2F)cc1)NC(=O)c1nc2cc(Cl)ccn2n1)C(=O)O` [Example 16-25, (2R,4R)-2-Amino-5-(5′-chloro-2′-fluorobiphenyl-4-yl)-4-[(7-chloro-[1,2,4]triazolo[1,5-a]pyridine-2-carbonyl)amino]pentanoic acid], the pKi entry is given as “≧9.0”.

With `N[C@@H](C[C@@H](Cc1ccc(-c2cc(Cl)ccc2F)cc1)NC(=O)c1nc2cc(Cl)ccn2n1)C(=O)O` [Example 16-26, (2S,4R)-2-Amino-5-(5′-chloro-2′-fluorobiphenyl-4-yl)-4-[(7-chloro-[1,2,4]triazolo[1,5-a]pyridine-2-carbonyl)amino]pentanoic acid], the Ki lay within 1.26 to 3.16 nM.

Consider `N[C@@H](C[C@@H](Cc1ccc(-c2cc(Cl)ccc2F)cc1)NC(=O)c1cc(O)no1)C(=O)O` [Example 16-27, (2S,4R)-2-Amino-5-(5′-chloro-2′-fluorobiphenyl-4-yl)-4-[(3-hydroxyisoxazole-5-carbonyl)amino]pentanoic acid], for which the Ki lay within 1.26 to 3.16 nM.

`N[C@H](C[C@@H](Cc1ccc(-c2cc(Cl)ccc2F)cc1)NC(=O)c1cc(O)no1)C(=O)O` [Example 16-28, (2R,4R)-2-Amino-5-(5′-chloro-2′-fluorobiphenyl-4-yl)-4-[(3-hydroxyisoxazole-5-carbonyl)amino]pentanoic acid]: the pKi entry was “≧9.0”.

In the case of `N[C@H](C[C@@H](Cc1ccc(-c2cc(Cl)ccc2F)cc1)NC(=O)c1ncccn1)C(=O)O` [Example 16-29, (2R,4R)-2-Amino-5-(5′-chloro-2′-fluorobiphenyl-4-yl)-4-[(pyrimidine-2-carbonyl)-amino]pentanoic acid], the pKi result is “≧9.0”.

Regarding `N[C@H](C[C@@H](Cc1ccc(-c2cc(Cl)ccc2F)cc1)NC(=O)c1coc(=O)[nH]1)C(=O)O` [Example 16-31, (2R,4R)-2-Amino-5-(5′-chloro-2′-fluorobiphenyl-4-yl)-4-[(2-oxo-2,3-dihydro-oxazole-4-carbonyl)amino]pentanoic acid], the pKi result was “≧9.0”.

Consider `N[C@H](C[C@@H](Cc1ccc(-c2cc(Cl)ccc2F)cc1)NC(=O)c1cc(-c2cnccn2)n[nH]1)C(=O)O` [Example 16-33, (2R,4R)-2-Amino-5-(5′-chloro-2′-fluorobiphenyl-4-yl)-4-[(5-pyrazin-2-yl-2H-pyrazole-3-carbonyl)amino]pentanoic acid], for which the pKi result is recorded as “≧9.0”.

In the case of `N[C@H](C[C@@H](Cc1ccc(-c2cc(Cl)ccc2F)cc1)NC(=O)c1nn(-c2ccccc2)c(=O)[nH]1)C(=O)O` [Example 16-35, (2R,4R)-2-Amino-5-(5′-chloro-2′-fluorobiphenyl-4-yl)-4-[(5-oxo-1-phenyl-4,5-dihydro-1H-[1,2,4]triazole-3-carbonyl)amino]p entanoic acid], the pKi result is recorded as “≧9.0”.

Consider `CC(C)c1coc(C(=O)N[C@H](Cc2ccc(-c3cc(Cl)ccc3F)cc2Cl)C[C@@H](N)C(=O)O)n1` [Example 17, (2R,4R)-2-Amino-5-(3,5′-dichloro-2′-fluorobiphenyl-4-yl)-4-[(4-isopropyloxazole-2-carbonyl)amino]pentanoic Acid], for which the Ki is at most 1 nM.

For the compound `CC(C)c1coc(C(=O)N[C@H](Cc2ccc(-c3cc(Cl)ccc3F)cc2Cl)C[C@H](N)C(=O)O)n1` [Example 18-1, (2S,4R)-2-Amino-5-(3,5′-dichloro-2′-fluorobiphenyl-4-yl)-4-[(4-isopropyloxazole-2-carbonyl)amino]pentanoic acid], the Ki was in the range of 3.16 to 10 nM.

`CCCc1nc(C(=O)N[C@H](Cc2ccc(-c3cc(Cl)ccc3F)cc2Cl)C[C@@H](N)C(=O)O)co1` [Example 18-2, (2R,4R)-2-Amino-5-(3,5′-dichloro-2′-fluorobiphenyl-4-yl)-4-[(2-propyloxazole-4-carbonyl)amino]pentanoic acid]: the pKi entry is recorded as “≧9.0”.

Take `Cc1cnc(C(=O)N[C@H](Cc2ccc(-c3cc(Cl)ccc3F)cc2Cl)C[C@@H](N)C(=O)O)o1` [Example 18-3, (2R,4R)-2-Amino-5-(3,5′-dichloro-2′-fluorobiphenyl-4-yl)-4-[(5-methyloxazole-2-carbonyl)amino]pentanoic acid]: the pKi entry was “≧9.0”.

With `Cc1cnc(C(=O)N[C@H](Cc2ccc(-c3cc(Cl)ccc3F)cc2Cl)C[C@H](N)C(=O)O)o1` [Example 18-4, (2S,4R)-2-Amino-5-(3,5′-dichloro-2′-fluorobiphenyl-4-yl)-4-[(5-methyloxazole-2-carbonyl)amino]pentanoic acid], the Ki fell in the range of 3.16 to 10 nM.

For the compound `CCc1cc(C(=O)N[C@H](Cc2ccc(-c3cc(Cl)ccc3F)cc2Cl)C[C@@H](N)C(=O)O)on1` [Example 18-5, (2R,4R)-2-Amino-5-(3,5′-dichloro-2′-fluorobiphenyl-4-yl)-4-[(3-ethylisoxazole-5-carbonyl)amino]pentanoic acid], the inhibitory constant (Ki) was in the range of 1.26 to 3.16 nM.

Consider `CCc1cc(C(=O)N[C@H](Cc2ccc(-c3cc(Cl)ccc3F)cc2Cl)C[C@H](N)C(=O)O)on1` [Example 18-6, (2S,4R)-2-Amino-5-(3,5′-dichloro-2′-fluorobiphenyl-4-yl)-4-[(3-ethylisoxazole-5-carbonyl)amino]pentanoic acid], for which the pKi entry is “≧9.0”.

Take `COCc1cc(C(=O)N[C@H](Cc2ccc(-c3cc(Cl)ccc3F)cc2Cl)C[C@@H](N)C(=O)O)no1` [Example 18-7, (2R,4R)-2-Amino-5-(3,5′-dichloro-2′-fluorobiphenyl-4-yl)-4-[(5-methoxymethylisoxazole-3-carbonyl)amino]pentanoic acid]: the Ki lay in the range of 10 to 31.6 nM.
